Tests used:
[1] = system: rat DME model induced by CA-1 (100 ng); assay: In vivo pharmacodynamic study on rat DME model induced by CA-1 (retinal thickness by OCT); set-up: species or system male SD rats
Protocol: 20 rats were selected from 25 male SD rats and divided into 5 groups according to their body weight, with 4 rats in each group and 1 spare rat in each group, and all the animals were examined by optical coherence tomography before modeling, 48 hours and 72 hours after modeling, respectively. The appropriate scanning position for measurement was selected and the retinal thickness was marked. Through the changes of retinal thickness in each group, the effects of the test compounds on improving retinal edema were compared, and the active compounds were screened. The above experimental operations of modeling and inspection should follow the order of the right eye first and then the left eye.
• Species: Rat • Strain: SD rat, SPF grade • Age and weight: 7-8 weeks old, weighing 250-300 g • Sex: Male • Supplier: Zhejiang Vital River Laboratory Animal Technology Co., Ltd. • Animal certificate number: • 2.2 Molding agent • Carbonic anhydrase-1 (CA-1, Sigma) • 3. Experimental methods and procedures • 3.1 Administration and modeling
On the day of modeling, all animals were first administered the vehicle or the test compound orally, and about 4 hours later, the animals were injected with physiological saline (5 µL/eye) or CA-I (100 ng/eye) into the vitreous cavity of both eyes for modeling, and the end time of injection in the second eye was recorded as 0 hour, and the vehicle (10 % DMSO + 90 % labrasol) or the test compound was administered orally to all animals at 4±0.5 hours, 20±0.5 hours, 28±0.5 hours, 44±0.5 hours, 52±0.5 hours and 68±0.5 hours after modeling, respectively.
Before modeling, 48 hours and 72 hours after modeling, animals were first anesthetized, and then examined by optical coherence tomography (OCT), and before anesthesia, appropriate mydriatic agents were used to ensure that the pupils of animals were completely dilated, and the animals were anesthetized by a combination of intramuscular injection of Zoletil (5 mg/kg) and Xylazine solution (3 mg/kg). OCT inspection requirements are as follows: • 1) The optic disc should be placed in the center of the infrared fundus image during data collection; • 2) the retinal scan was performed in a “pozidriv” type, with the crossover point over the optic disc, and the retina was scanned at the widest length. • 3) The software tracking function was used as much as possible for comparison of retinal thickness before and after administration, and if the tracking function was not available, the eye position was adjusted as much as possible to be consistent with that before administration, and the clarity of the tomographic images was ensured as much as possible to facilitate comparison of retinal thickness before and after administration.

[2] = Pharmacokinetic test in rat eyes after intragastric administration (eye tissue and plasma, LC-MS/MS); assay type: in vivo, male SD rats; conditions: intragastric 75 mg/kg
Protocol: Male SD rats were used as test animals, and LC-MS/MS method was used to determine the drug concentrations in eye tissues at different times after intragastric administration of the test compound. The pharmacokinetic behavior of the compounds in the eyes of rats after intragastric administration was studied, and the pharmacokinetic characteristics were evaluated.
2.2 Test animals: Six healthy adult male rats were divided into three groups with 4 eyes in each group. Animals were purchased from Beijing Vital River Laboratory Animal Technology Co., Ltd.
2.3 Drug preparation: An appropriate amount of sample was weighed, and an appropriate amount of DMSO and labrasol were added in sequence according to the volume ratio of 10:90, then the mixture was stirred and sonicated to reach a clear state of 15 mg/mL for intragastric administration.
2.4 Administration: 6 male SD rats were divided into 3 groups, after fasting for one night, the intragastric administration group was administered with a volume of 5 mL/kg and a dose of 75 mg/kg.
Male rats were euthanized at 1, 4 and 8 hours after intragastric administration of compound 1, and eye tissues from 2 eyes of each rat were combined and the concentration of compound in the retina and choroid/sclera was measured.
The LC-MS/MS method was used to determine the content of the test compound in the eye tissues of rats after intragastric administration. The linear range of the method was from 2.00 to 6000 nmol/L; the eye tissue concentration data are presented in Table 3, in which each eye tissue concentration data was obtained from the combined left and right eyes of 2 rats.

[3] = oral 75 mg/kg, 48 hours after modeling
[4] = oral 75 mg/kg, 72 hours after modeling

SMILES | relief rate of retinal thickening ([1]; oral 50 mg/kg, 48 hours after modeling) | relief rate of retinal thickening ([1]; oral 50 mg/kg, 72 hours after modeling) | relief rate of retinal thickening [1, 3] | relief rate of retinal thickening [1, 4] | AUC0-8h Choroid and sclera [2] | Concentration of compound in Choroid and sclera ([2]; 1 hour) | Concentration of compound in Retina ([2]; 1 hour) | Concentration of compound in Choroid and sclera ([2]; 4 hours) | Concentration of compound in Retina ([2]; 4 hours) | Concentration of compound in Choroid and sclera ([2]; 8 hours) | concentration at 1 h ([2]; male, SD, plasma, oral, 1 hour, read-out: Concentration of compound in Plasma) | concentration at 4 h ([2]; male, SD, plasma, oral, 4 hours, read-out: Concentration of compound in Plasma) | concentration at 8 h ([2]; male, SD, plasma, oral, 8 hours, read-out: Concentration of compound in Plasma) | AUC(0-t) ([2]; male, SD, plasma, po, read-out: AUC0-8h Plasma)
COc1ccc(F)c(CNC(=O)c2cn(Cc3ccc(Cn4cc(F)ccc4=O)cc3)nc2C2COC2)c1F [Compound 1] | 19% | 79% | 100% | 100% | 2803 nmol·h/kg | 640 nmol/kg | 90.8 nmol/kg | 450 nmol/kg | 147 nmol/kg | 82 nmol/kg | 3.69 µM | 6.44 µM | 729 nM | 22 µM·h
COc1ccc(F)c(CNC(=O)c2cn(Cc3ccc(Cn4cc(F)ccc4=O)c(F)c3)nc2C2COC2)c1F [Compound 8] | – | – | 84% | 116% | – | – | – | – | – | – | – | – | – | –

— patent US11814371B2, “Heterocyclic compound” (MEDSHINE DISCOVERY INC., priority 2020, dated 2023)
